Assay results taken from US20170065593A1, “Combination” (Novartis AG, priority 2009, published 2017).
Read-outs that look alike come from different tables or passages of the source.

What was measured:
A549 = assay: Cell growth inhibition assay (Cell Titer Glo, 3 days); assay type: cell-based, Human; settings: A549 (KRAS_G12S), single agent, mean ± std
Experimental: (§1) Human tumor cell lines from lung cancer, A427, A549, Calu1, Calu3, Calu6, COR-L23, HOP62, MV522, NCI-H1155, NCI-H1299, NCI-H1355, NCI-H1395, NCI-H157, NCI-H1573, NCI-H1666, NCI-1755, NCI-H1792, NCI-2009, NCI-H2030, NCI-H2122, NCI-H2291, NCI-H23, NCI-H2347, NCI-H358, NCI-H441, NCI-H460, NCI-H650, NCI-H727, SW1573 and SW900 were cultured in RPMI 1640 medium containing 10% fetal bovine serum (FBS). Cell line mutation data was collated for the status for the RAS and RAF genes. The data source is the cancer cell line mutation screening data published as part of the Catalog of Somatic Mutations in Cancer database (COSMIC) (Bamford S. et al. Br. J. Cancer. 2004. 91:355-58) and/or in house DNA sequencing.
(§2) Cells were seeded in a 96-well tissue culture plate (NUNC 136102) of RPMI medium containing 10% FBS at 500-2,000 cells per well. Approximately 24 hours after plating, cells were exposed to ten, two-fold or three-fold serial dilutions of either Compound A or B or the combination of the two agents at a 10:1 molar ratio (Compounds A and B respectively). The final dosing concentration range for Compound A was 2-1000 nM and was 0.2-100 nM for Compound B. Cells were incubated in the presence of compounds for 3 days. ATP levels were determined by adding Cell Titer Glo® (Promega) according to the manufacturer's protocol. Briefly, Cell Titer Glo® was added to each plate, incubated for 20 minutes then luminescent signal was read on the SpectraMax L plate reader with a 0.5 sec integration time. All assays were run at least in duplicate.
(§3) Inhibition of cell growth was estimated after treatment with compound or combination of compounds for three days and comparing the signal to cells treated with vehicle (DMSO). Cell growth was calculated relative to vehicle (DMSO) treated control wells. Concentration of compound that inhibits 50% of control cell growth (IC50) was back-interpolated when y=50% of DMSO treated control wells using nonlinear regression with the equation: […]

CORL23 = assay: as above; assay type: cell-based, Human; settings: CORL23 (KRAS_G12V), single agent, mean ± std
Experimental: as §1, §2, §3

NCI-H1155 = assay: as above; assay type: cell-based, Human; settings: NCI-H1155 (KRAS_Q61H), single agent, mean ± std
Experimental: as §1, §2, §3

NCI-H1573 = assay: as above; assay type: cell-based, Human; settings: NCI-H1573 (KRAS-G12A), single agent, mean ± std
Experimental: as §1, §2, §3

NCI-H2122 = assay: as above; assay type: cell-based, Human; settings: NCI-H2122 (KRAS_G12C), single agent, mean ± std
Experimental: as §1, §2, §3

NCI-H2291 = assay: as above; assay type: cell-based, Human; settings: NCI-H2291 (KRAS_G12F), single agent, mean ± std
Experimental: as §1, §2, §3

NCI-H23 = assay: as above; assay type: cell-based, Human; settings: NCI-H23 (KRAS_G12C), single agent, mean ± std
Experimental: as §1, §2, §3

NCI-H727 = assay: as above; assay type: cell-based, Human; settings: NCI-H727 (KRAS_G12V), single agent, mean ± std
Experimental: as §1, §2, §3

SW900 = assay: as above; assay type: cell-based, Human; settings: SW900 (KRAS_G12V), single agent, mean ± std
Experimental: as §1, §2, §3

[1] = system: panel of 29 human lung tumor cell lines; assay: Cell growth inhibition, summary over the panel; assay type: cell-based; settings: out of 29 lines; single agent
Experimental: as §1
Cells were seeded in a 96-well tissue culture plate (NUNC 136102) of RPMI medium containing 10% FBS at 500-2,000 cells per well. […] ATP levels were determined by adding Cell Titer Glo® (Promega) according to the manufacturer's protocol. Briefly, Cell Titer Glo® was added to each plate, incubated for 20 minutes then luminescent signal was read on the SpectraMax L plate reader with a 0.5 sec integration time. […]
Inhibition of cell growth was estimated after treatment with compound or combination of compounds for three days and comparing the signal to cells treated with vehicle (DMSO). Cell growth was calculated relative to vehicle (DMSO) treated control wells. […]

[2] = system: A549 lung cancer cell line; assay: Assay 2: cell growth (CellTiterGlo, 72 hours), Ymin; assay type: cell-based; settings: percent of T=0 (T=0 = 100%)
Experimental: FIG. 5 depicts the effect of MEK inhibitor, mTOR inhibitor and their combination on A549 lung cancer cell line growth. […] Cells were treated with MEK inhibitor (two fold dilutions ranging from 7.3 uM-0.014 nM) or with mTOR inhibitor (two fold dilutions ranging from 14.6 uM-0.112 nM) or in combination with both compounds and incubated for 72 hours. Cell growth was measured using the CellTiterGlo (CTG) reagent (Promega) according to the manufacturer's protocol. Data were analyzed using the XLfit (IDBS Ltd.) curve-fitting tool for Microsoft Excel. Growth IC50 (gIC50) and Ymin values were generated using a four-parameter curve fit algorithm (XLFit algorithm #205). Results were expressed as a percent of the t=0 and plotted against the compound concentration. […] Formula below was used to calculate mutually exclusive combination index (CI). Data were reported as log CI, where the logarithm value of CI was calculated. […] Similar analysis was performed for all cell lines and Ymin results are depicted in FIG. 6.

[3] = Homo sapiens, 72 h, read-out: IC50 Single Agent Compound B
[4] = read-out: IC50 Single Agent Compound A

IC50 (A549; [3]) [nM]	IC50 (NCI-H1155; [3]) [nM]	IC50 (NCI-H1573; [3]) [nM]	IC50 (NCI-H2122; [3]) [nM]	IC50 (NCI-H2291; [3]) [nM]	IC50 (NCI-H23; [3]) [nM]	IC50 (NCI-H727; [3]) [nM]	IC50 (SW900; [3]) [nM]	Compound	IC50 (CORL23; Homo sapiens, COR-L23, 72 h, read-out: IC50 Single Agent Compound B) [nM]	number of lines sensitive (IC50s<100 nM) [1]	IC50 (A549; [4]) [nM]	IC50 (CORL23; [4]) [nM]	IC50 (NCI-H1155; [4]) [nM]	IC50 (NCI-H1573; [4]) [nM]	IC50 (NCI-H2122; [4]) [nM]	IC50 (NCI-H2291; [4]) [nM]	IC50 (NCI-H23; [4]) [nM]	IC50 (NCI-H727; [4]) [nM]	IC50 (SW900; [4]) [nM]	Ymin (lower Y value at any compound concentration) [2] [%]
3 ± 3	> 100	> 100	97 ± 37	> 100	> 100	> 100	> 100	CO[C@H]1C[C@@H]2CC[C@@H](C)[C@@](O)(O2)C(=O)C(=O)N2CCCC[C@H]2C(=O)O[C@H]([C@H](C)C[C@@H]2CC[C@@H](OCCO)[C@H](OC)C2)CC(=O)[C@H](C)/C=C(\C)[C@@H](O)[C@@H](OC)C(=O)[C@H](C)C[C@H](C)/C=C/C=C/C=C/1C [Compound B, everolimus]	> 100	2										
								N-{3-[3-cyclopropyl-5-(2-fluoro-4-iodo-phenylamino)6,8-dimethyl;-2,4,7-trioxo-3,4,6,7-tetrahydro-2H-pyrido[4,3-d]pyrimidin-1-yl]phenyl}acetamide [Compound A]		17	32 ± 9	989 ± 86	> 1000	82 ± 11	5 ± 1	4	31 ± 2	3 ± 1	141 ± 2	257
